In ChEMBL document CHEMBL1201862, “PubChem BioAssay data set” (2004):
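Compound exposure: 48 hours, 5 concentrations, 96-well plates. Here, GI50 denotes the concentration required for 50% inhibition of growth.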 Calls of active or inactive are those of the source. Cut-off read from the data, not from the text of the source: active = GI50 up to about 1.1 µM and inactive = higher.

What was measured:
Test in all cases: NCI-60 cell line screen, 48 h
UO-31 = test system: UO-31
A549 = test system: A549
NCI-H460 = test system: NCI-H460
SF-295 = test system: SF-295
TK-10 = test system: TK-10
IGROV-1 = test system: IGROV-1
SK-MEL-28 = test system: SK-MEL-28
SK-MEL-2 = test system: SK-MEL-2
RPMI-8226 = test system: RPMI-8226
SNB-75 = test system: SNB-75
A498 = test system: A498
U-251 = test system: U-251
SNB-19 = test system: SNB-19
LOX IMVI = test system: LOX IMVI
SK-MEL-5 = test system: SK-MEL-5
SW-620 = test system: SW-620
OVCAR-3 = test system: OVCAR-3
MDA-MB-435 = test system: MDA-MB-435
MCF7 = test system: MCF7
DU-145 = test system: DU-145

| Structure (SMILES) | GI50 (UO-31) | GI50 (A549) | GI50 (NCI-H460) | GI50 (SF-295) | GI50 (TK-10) | GI50 (IGROV-1) | GI50 (SK-MEL-28) | GI50 (SK-MEL-2) | GI50 (RPMI-8226) | GI50 (SNB-75) | GI50 (A498) | GI50 (U-251) | GI50 (SNB-19) | GI50 (LOX IMVI) | GI50 (SK-MEL-5) | GI50 (SW-620) | GI50 (OVCAR-3) | GI50 (MDA-MB-435) | GI50 (MCF7) | GI50 (DU-145) |
| --- | --- | --- | --- | --- | --- | --- | --- | --- | --- | --- | --- | --- | --- | --- | --- | --- | --- | --- | --- | --- |
| CCCCCC(C[N+]1(C)CCOCC1)C(=O)/C=C/c1ccccc1 (centres undefined) | 16.1 µM (inactive) | 22.9 µM (inactive) | 16.4 µM (inactive) | 7.74 µM (inactive) | 20.3 µM (inactive) | 19.4 µM (inactive) | 16.2 µM (inactive) | 15.2 µM (inactive) | 1.54 µM (inactive) | 7.33 µM (inactive) | 15.1 µM (inactive) | 7.67 µM (inactive) | 12 µM (inactive) | 1.76 µM (inactive) | 13.4 µM (inactive) | 2.62 µM (inactive) | 14.4 µM (inactive) |  |  |  |
| Cc1ccc(/N=N/c2c(O)c(C(=O)O)cc3ccccc23)cc1C | > 100 µM (inactive) | > 100 µM (inactive) | > 100 µM (inactive) | > 100 µM (inactive) | > 100 µM (inactive) | > 100 µM (inactive) | > 100 µM (inactive) | > 100 µM (inactive) | > 100 µM (inactive) | > 100 µM (inactive) |  | 80.7 µM (inactive) | 46.1 µM (inactive) |  | > 100 µM (inactive) | > 100 µM (inactive) | > 100 µM (inactive) | > 100 µM (inactive) | > 100 µM (inactive) |  |
| SC1=NC2=C(CSC/C2=C\c2ccccc2)C(c2ccccc2)N1 (centres undefined) | 33.8 µM (inactive) | 38.5 µM (inactive) | 33 µM (inactive) | 21.6 µM (inactive) | 61.8 µM (inactive) | > 100 µM (inactive) | > 100 µM (inactive) | 49.3 µM (inactive) | 35.2 µM (inactive) |  |  | 35 µM (inactive) | 39.6 µM (inactive) | 38.1 µM (inactive) | 12.1 µM (inactive) | 48.3 µM (inactive) | > 100 µM (inactive) |  | 30.9 µM (inactive) | 95.1 µM (inactive) |
| OC[C@H]1O[C@@H](n2cnc3cncnc32)[C@H](O)[C@@H]1O [NEBULARINE] | 1.28 µM (inactive) | 0.904 µM (active) | 0.593 µM (active) | 2 µM (inactive) |  | 0.64 µM (active) | 1.39 µM (inactive) | 1.67 µM (inactive) | 0.714 µM (active) | 0.628 µM (active) | 1.52 µM (inactive) | 1.63 µM (inactive) | 1.45 µM (inactive) | 0.977 µM (active) | 1.67 µM (inactive) | 0.462 µM (active) | 1.65 µM (inactive) |  | 0.307 µM (active) |  |
| CCC(C)C1NC(=O)C2CCCN2C(=O)C(CC2CO2)OC(=O)CCNC(=O)C(C)N(C)C(=O)C(C(C)C)N(C)C1=O (centres undefined) | 7.31 µM (inactive) | 0.197 µM (active) |  | 0.176 µM (active) | > 14 µM (inactive) | 2.14 µM (inactive) | > 100 µM (inactive) | < 0.0158 µM (active) | 0.968 µM (active) | 0.331 µM (active) | > 100 µM (inactive) | 2.75 µM (inactive) | > 13.4 µM (inactive) | < 0.0208 µM (active) | < 0.0169 µM (active) | 0.0478 µM (active) |  | 0.111 µM (active) | 0.0267 µM (active) |  |
| O=C(O)C1=CCCc2ccc3ccccc3c21 | > 100 µM (inactive) | > 100 µM (inactive) | > 100 µM (inactive) | > 100 µM (inactive) | > 100 µM (inactive) | > 100 µM (inactive) | > 100 µM (inactive) | > 100 µM (inactive) | > 100 µM (inactive) | 85.3 µM (inactive) | > 100 µM (inactive) | > 100 µM (inactive) | > 100 µM (inactive) | > 100 µM (inactive) |  | > 100 µM (inactive) | > 100 µM (inactive) |  |  |  |
| CC(=O)OC1CCC2(C)C(CCC3C2CCC2(C)C(c4ccc(=O)oc4)C(OC(C)=O)CC32O)C1 (centres undefined) | 0.0156 µM (active) | 0.0135 µM (active) | 0.0147 µM (active) | 0.016 µM (active) |  | 0.0173 µM (active) | 0.0277 µM (active) | 0.0258 µM (active) | 0.0148 µM (active) | 0.0183 µM (active) | 0.0156 µM (active) | 0.0184 µM (active) | 0.0293 µM (active) | 0.0176 µM (active) | 0.0164 µM (active) | 0.0148 µM (active) | 0.0161 µM (active) |  | 0.0164 µM (active) |  |
| COc1ccccc1NC(=O)CC(=O)N1N=C(C)C(/N=N/c2ccc(S(N)(=O)=O)cc2)C1=O (centres undefined) | > 100 µM (inactive) | > 100 µM (inactive) | > 100 µM (inactive) | > 100 µM (inactive) | > 100 µM (inactive) | > 100 µM (inactive) | > 100 µM (inactive) | > 100 µM (inactive) | > 100 µM (inactive) | > 100 µM (inactive) | > 100 µM (inactive) | > 100 µM (inactive) | > 100 µM (inactive) | > 100 µM (inactive) | > 100 µM (inactive) | > 100 µM (inactive) | > 100 µM (inactive) |  |  |  |
| CN(C)Cc1cc(/N=N/c2ccccc2)cc(CN(C)C)c1O | 55 µM (inactive) | > 100 µM (inactive) | 47.1 µM (inactive) | > 100 µM (inactive) | > 100 µM (inactive) | 85.7 µM (inactive) | > 100 µM (inactive) | 64.4 µM (inactive) | 80.5 µM (inactive) | > 100 µM (inactive) | 97.3 µM (inactive) | 99.1 µM (inactive) | > 100 µM (inactive) | 47.2 µM (inactive) | > 100 µM (inactive) | > 100 µM (inactive) | 27.4 µM (inactive) | > 100 µM (inactive) |  | 92.5 µM (inactive) |
| NC(=O)/C(=N\NC(=O)c1cc2ccccc2cc1O)C1C(=O)N(c2ccccc2)N=C1N (centres undefined) | 7.73 µM (inactive) | 30.6 µM (inactive) | > 100 µM (inactive) | 33 µM (inactive) | > 100 µM (inactive) | 21.1 µM (inactive) | 73.6 µM (inactive) | 21.7 µM (inactive) | 13.8 µM (inactive) | 20.5 µM (inactive) | 1.23 µM (inactive) | 30.3 µM (inactive) | 65.3 µM (inactive) | > 100 µM (inactive) | 18.4 µM (inactive) | 37.2 µM (inactive) | 28 µM (inactive) |  |  |  |
| CCC(C(=O)O)c1ccc(OC)cc1 (centres undefined) | > 100 µM (inactive) | > 100 µM (inactive) | > 100 µM (inactive) | > 100 µM (inactive) | > 100 µM (inactive) | > 100 µM (inactive) | > 100 µM (inactive) | > 100 µM (inactive) | > 100 µM (inactive) | > 100 µM (inactive) | > 100 µM (inactive) | > 100 µM (inactive) | > 100 µM (inactive) | > 100 µM (inactive) | > 100 µM (inactive) | > 100 µM (inactive) | > 100 µM (inactive) |  |  |  |
| O=C1C=CC(=C(c2ccc(O)cc2)c2ccc(O)cc2)C=C1 [AURIN] | 17 µM (inactive) | 22 µM (inactive) | 15.8 µM (inactive) | 12.5 µM (inactive) | 19 µM (inactive) | 13.6 µM (inactive) | 12.1 µM (inactive) | 3.88 µM (inactive) | 3.85 µM (inactive) | 3.21 µM (inactive) | 17.7 µM (inactive) | 5.82 µM (inactive) | 15.6 µM (inactive) | 10 µM (inactive) | 7.06 µM (inactive) | 12.5 µM (inactive) | 7 µM (inactive) |  |  |  |
| C[C@H]1C(=O)O[C@@H]1[C@H]1COC(C)(C)O1 | > 100 µM (inactive) | > 100 µM (inactive) | > 100 µM (inactive) | > 100 µM (inactive) | > 100 µM (inactive) |  | > 100 µM (inactive) | > 100 µM (inactive) | > 100 µM (inactive) | 82 µM (inactive) | > 100 µM (inactive) | > 100 µM (inactive) | > 100 µM (inactive) |  |  | > 100 µM (inactive) | > 100 µM (inactive) | > 100 µM (inactive) | > 100 µM (inactive) |  |
| COc1ccc(OC(=O)CC2Cc3cc(OC)c(OC)c(OC)c3-c3ccc(SC)c(=O)cc32)cc1 (centres undefined) | 0.792 µM (active) | 0.762 µM (active) | 0.245 µM (active) | 0.0794 µM (active) | 29.7 µM (inactive) | 1.85 µM (inactive) | 0.698 µM (active) | 2.14 µM (inactive) | 0.128 µM (active) | 2.52 µM (inactive) | 0.0332 µM (active) | 0.224 µM (active) | 0.12 µM (active) | 0.172 µM (active) | 0.378 µM (active) | 0.0783 µM (active) | 0.185 µM (active) |  |  |  |
| O=C1CCCCC/C1=C\c1ccc(Cl)cc1 | 27.2 µM (inactive) | 36.1 µM (inactive) | 35.2 µM (inactive) | 22 µM (inactive) | 28.1 µM (inactive) | 67.6 µM (inactive) | 49.3 µM (inactive) | 34.8 µM (inactive) | 25.4 µM (inactive) | 17 µM (inactive) | 33 µM (inactive) | 30 µM (inactive) | 55.1 µM (inactive) | 28.9 µM (inactive) | 13.9 µM (inactive) | 24.7 µM (inactive) | 47.8 µM (inactive) | 20.6 µM (inactive) |  | 39.2 µM (inactive) |
| CCCCCCCCCCCCCCCCCC(=O)OCC(CN(C)CCN(C)C)OC(=O)CCCCCCCCCCCCCCCCC (centres undefined) | > 100 µM (inactive) | 55.3 µM (inactive) | > 100 µM (inactive) | 63.4 µM (inactive) | > 100 µM (inactive) | > 100 µM (inactive) | > 100 µM (inactive) | > 100 µM (inactive) | > 100 µM (inactive) | 98.2 µM (inactive) | > 100 µM (inactive) | > 100 µM (inactive) | > 100 µM (inactive) | > 100 µM (inactive) | > 100 µM (inactive) | > 100 µM (inactive) | > 100 µM (inactive) |  |  |  |
